Test results: US20140066385A1, “METHOD FOR TREATING CANCER BY COMBINED USE OF DRUGS” (Astellas Pharma Inc., priority 2011, published 2014)

Experiments:
[1] = test system: human hormone-resistant prostatic cancer (PC-3); test: Example 9: FK330 with paclitaxel in PC-3 tumor-bearing mice; format: in vivo, nude mice; conditions: FK330 100 mg/kg bid p.o. + paclitaxel 10 mg/kg/day i.v. multicycle
Experimental: The dose of FK330 is expressed in terms of the weight of a simple substance (non-hydrate). Paclitaxel was purchased from LC Laboratories, Inc. (Woburn, Mass., USA), and was used as paclitaxel.
FK330 was suspended (20 mg/mL) in a 0.5% aqueous methyl cellulose solution (0.5% MC), and was orally administered. Paclitaxel was prepared into a stock solution at 10 mg/mL with an ethanol/cremophor solution (mixed at 1:1), and then the stock solution was diluted to 1 mg/mL with physiological saline for injection (Otsuka Pharmaceutical Group) immediately before administration and was intravenously administered through the tail vein.
Human hormone-resistant prostatic cancer-derived PC-3 (CRL-1435) was obtained from American Type Culture Collection (VA, USA). […]
The body weight and the tumor diameter, determined by using a digital caliper, were measured twice a week. The tumor volume was calculated from the calculation formula for ellipsoid volume of (major axis×[minor axis]^2×0.5).
The results are expressed as the mean value (Mean)±standard error (SEM). […] Using the actual measured values of the tumor volume at each measurement time point, an unpaired statistical test (Student's t-test) of the difference between two groups was carried out between a single administration group and a combination use group. […]

[2] = target: inducible nitric oxide synthase (inducible NOS, iNOS) (Homo sapiens, UniProt P35228); conditions: reported in Non-Patent Document 1; cited from earlier work
inducible nitric oxide synthase (inducible NOS, iNOS), sequence (P35228 whole entry): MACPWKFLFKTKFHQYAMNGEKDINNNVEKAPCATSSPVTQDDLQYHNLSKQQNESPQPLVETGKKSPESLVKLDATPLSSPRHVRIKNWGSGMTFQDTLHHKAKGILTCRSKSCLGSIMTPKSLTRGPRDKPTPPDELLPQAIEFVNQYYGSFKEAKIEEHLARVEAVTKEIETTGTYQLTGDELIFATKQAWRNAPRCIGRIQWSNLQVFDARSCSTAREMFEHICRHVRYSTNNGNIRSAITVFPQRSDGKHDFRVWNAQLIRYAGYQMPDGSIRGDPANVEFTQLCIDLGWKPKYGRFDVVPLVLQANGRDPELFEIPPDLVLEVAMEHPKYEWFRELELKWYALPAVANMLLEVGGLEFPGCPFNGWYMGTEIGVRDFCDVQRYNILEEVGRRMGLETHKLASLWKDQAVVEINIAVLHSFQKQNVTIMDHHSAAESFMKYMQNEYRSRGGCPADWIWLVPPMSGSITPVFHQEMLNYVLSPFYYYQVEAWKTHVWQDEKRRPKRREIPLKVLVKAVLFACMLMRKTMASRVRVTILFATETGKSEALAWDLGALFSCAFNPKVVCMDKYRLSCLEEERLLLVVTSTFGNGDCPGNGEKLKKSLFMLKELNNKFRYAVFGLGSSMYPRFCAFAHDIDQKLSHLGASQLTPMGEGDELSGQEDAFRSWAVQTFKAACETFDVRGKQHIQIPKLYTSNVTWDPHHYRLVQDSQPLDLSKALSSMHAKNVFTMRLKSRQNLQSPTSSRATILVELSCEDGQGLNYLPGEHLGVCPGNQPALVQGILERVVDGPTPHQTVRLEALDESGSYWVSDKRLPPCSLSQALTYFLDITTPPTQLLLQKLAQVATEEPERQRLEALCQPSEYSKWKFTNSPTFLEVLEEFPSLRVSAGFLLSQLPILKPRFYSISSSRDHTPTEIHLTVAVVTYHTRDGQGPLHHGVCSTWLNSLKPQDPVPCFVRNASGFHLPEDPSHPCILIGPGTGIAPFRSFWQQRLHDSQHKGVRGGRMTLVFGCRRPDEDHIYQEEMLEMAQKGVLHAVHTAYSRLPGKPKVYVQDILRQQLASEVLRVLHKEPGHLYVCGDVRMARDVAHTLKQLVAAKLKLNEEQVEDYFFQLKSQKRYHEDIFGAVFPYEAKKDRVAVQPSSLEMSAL

O=C(/C=C/c1ccc(Cl)cc1)N[C@@H](Cc1ccccn1)C(=O)NCC(=O)N1CCC(Oc2cc(C(F)(F)F)ncn2)CC1 [FK330, N^2-[(2E)-3-(4-chlorophenyl)-2-propenoyl]-N-[2-oxo-2-(4-{[6-(trifluoromethyl)pyrimidin-4-yl]oxy}piperidin-1-yl)ethyl]-3-pyridin-2-yl-L-alaninamide]
tumor volume reduction ratio compared with the paclitaxel-only group ([1]; Day 30, P<0.05): 63.1%
tumor volume reduction ratio compared with the paclitaxel-only group ([1]; Day 55, P<0.001): 72.1%
inducible nitric oxide synthase (iNOS) inhibitory activity [2]: excellent
